Results: patent publication US11052092B2, “N-{[2-(piperidin-1-yl)phenyl](phenyl)methyl}-2-(3-oxo-3,4-dihydro-2H-1,4-benzoxazin-7-yl)acetamide derivatives and related compounds as ROR-gamma modulators for treating autoimmune diseases” (Genfit, priority 2017, dated 2021)
Counter-ions that a name gives are not always drawn.

system: not given; experiment: not given; settings: not given

Compound | melting point
Cc1ccc(C(NC(=O)Cc2ccc3c(c2)CC(=O)N3C)c2ccc(C)o2)c(N2CCCCC2)c1 (centres unmarked) (as salt: HCl) [Cpd. 38, N-{[4-methyl-2-(piperidin-1-yl)phenyl](5-methylfuran-2-yl)methyl}-2-(1-methyl-2-oxo-2,3-dihydro-1H-indol-5-yl)acetamide] | 215 °C
Cc1ccc(C(NC(=O)Cc2ccc3c(c2)C(C)(O)C(=O)N3C)c2ccc(C)o2)c(N2CCCCC2)c1 (centres unmarked) (as salt: HCl) [Cpd. 39, 2-(3-hydroxy-1,3-dimethyl-2-oxo-2,3-dihydro-1H-indol-5-yl)-N-{[4-methyl-2-(piperidin-1-yl)phenyl](5-methylfuran-2-yl)methyl}acetamide] | 103 °C
Cc1ccc(C(NC(=O)Cc2ccc3c(c2)C(C)(C)C(=O)N3C)c2ccc(C)o2)c(N2CCCCC2)c1 (centres unmarked) (as salt: HCl) [Cpd. 40, N-{[4-methyl-2-(piperidin-1-yl)phenyl](5-methylfuran-2-yl)methyl}-2-(1,3,3-trimethyl-2-oxo-2,3-dihydro-1H-indol-5-yl)acetamide] | 75 °C
Cc1ccc(C(NC(=O)Cc2ccc3c(c2)CN(S(C)(=O)=O)C3)c2ccc(C)o2)c(N2CCCCC2)c1 (centres unmarked) (as salt: HCl) [Cpd. 41, 2-(2-methanesulfonyl-2,3-dihydro-1H-isoindol-5-yl)-N-{[4-methyl-2-(piperidin-1-yl)phenyl](5-methylfuran-2-yl)methyl}acetamide] | 83 °C
Cc1ccc(C(NC(=O)Cc2cccc3c2CN(S(C)(=O)=O)C3)c2ccc(C)o2)c(N2CCCCC2)c1 (centres unmarked) (as salt: HCl) [Cpd. 50, 2-(2-methanesulfonyl-2,3-dihydro-1H-isoindol-4-yl)-N-{[4-methyl-2-(piperidin-1-yl)phenyl](5-methylfuran-2-yl)methyl}acetamide] | 155 °C
Cc1ccc(C(NC(=O)Cc2ccc3c(c2)CCC3=O)c2ccc(C)o2)c(N2CCCCC2)c1 (centres unmarked) (as salt: HCl) [Cpd. 51, N-{[4-methyl-2-(piperidin-1-yl)phenyl](5-methylfuran-2-yl)methyl}-2-(1-oxo-2,3-dihydro-1H-inden-5-yl)acetamide] | 74 °C
Cc1ccc(C(NC(=O)Cc2cc(C)c3c(c2)CC(=O)N3)c2ccc(C)o2)c(N2CCCCC2)c1 (centres unmarked) (as salt: HCl) [Cpd. 54, N-{[4-methyl-2-(piperidin-1-yl)phenyl](5-methylfuran-2-yl)methyl}-2-(7-methyl-2-oxo-2,3-dihydro-1H-indol-5-yl)acetamide] | 237 °C
CC(C)=C1C(=O)Nc2ccc(CC(=O)NC(c3ccc(C)o3)c3ccc(C)cc3N3CCCCC3)cc21 (centres unmarked) (as salt: HCl) [Cpd. 55, N-{[4-methyl-2-(piperidin-1-yl)phenyl](5-methylfuran-2-yl)methyl}-2-[2-oxo-3-(propan-2-ylidene)-2,3-dihydro-1H-indol-5-yl]acetamide] | 172 °C
Cc1ccc(C(NC(=O)C2(c3ccc4c(c3)CN(S(C)(=O)=O)C4)CC2)c2ccc(Cl)o2)c(C)c1 (centres unmarked) (as salt: HCl) [Cpd. 56, N-[(5-chlorofuran-2-yl)(2,4-dimethylphenyl)methyl]-1-(2-methanesulfonyl-2,3-dihydro-1H-isoindol-5-yl)cyclopropane-1-carboxamide] | 68 °C
Cc1ccc(C(NC(=O)Cc2ccc3[nH]cc(CCO)c3c2)c2ccc(C)o2)c(N2CCCCC2)c1 (centres unmarked) (as salt: HCl) [Cpd. 57, 2-[3-(2-hydroxyethyl)-1H-indol-5-yl]-N-{[4-methyl-2-(piperidin-1-yl)phenyl](5-methylfuran-2-yl)methyl}acetamide] | 80 °C
Cc1ccc(C(NC(=O)Cc2ccc3[nH]cc(CO)c3c2)c2ccc(C)o2)c(N2CCCCC2)c1 (centres unmarked) (as salt: HCl) [Cpd. 58, 2-[3-(hydroxymethyl)-1H-indol-5-yl]-N-{[4-methyl-2-(piperidin-1-yl)phenyl](5-methylfuran-2-yl)methyl}acetamide] | 99 °C
Cc1ccc(C(NC(=O)C2(c3ccc4c(c3)OCC(=O)N4)CC2)c2ccc(C)o2)c(C)c1 (centres unmarked) (as salt: HCl) [Cpd. 59, N-[(2,4-dimethylphenyl)(5-methylfuran-2-yl)methyl]-1-(3-oxo-3,4-dihydro-2H-1,4-benzoxazin-7-yl)cyclopropane-1-carboxamide] | 89 °C
Cc1ccc(C(NC(=O)C2(c3ccc4c(c3)CC(=O)N4)CC2)c2ccc(C)o2)c(C)c1 (centres unmarked) (as salt: HCl) [Cpd. 61, N-[(2,4-dimethylphenyl)(5-methylfuran-2-yl)methyl]-1-(2-oxo-2,3-dihydro-1H-indol-5-yl)cyclopropane-1-carboxamide] | 85 °C
Cc1ccc(C(NC(=O)C2(c3ccc4[nH]cc(CCO)c4c3)CC2)c2ccc(Cl)o2)c(C)c1 (centres unmarked) (as salt: HCl) [Cpd. 62, N-[(5-chlorofuran-2-yl)(2,4-dimethylphenyl)methyl]-1-[3-(2-hydroxyethyl)-1H-indol-5-yl]cyclopropane-1-carboxamide] | 70 °C
Cc1ccc(C(NC(=O)C2(c3ccc4c(c3)CS(=O)(=O)N4)CC2)c2ccc(C)o2)c(C)c1 (centres unmarked) (as salt: HCl) [Cpd. 63, N-[(2,4-dimethylphenyl)(5-methylfuran-2-yl)methyl]-1-(2,2-dioxo-1,3-dihydro-2,1-benzothiazol-5-yl)cyclopropane-1-carboxamide] | 97 °C
Cc1ccc(C(NC(=O)Cc2ccc3[nH]cc(C)c3c2)c2ccc(C)o2)c(N2CCCCC2)c1 (centres unmarked) (as salt: HCl) [Cpd. 64, 2-(3-methyl-1H-indol-5-yl)-N-{[4-methyl-2-(piperidin-1-yl)phenyl](5-methylfuran-2-yl)methyl}acetamide] | 68 °C
Cc1ccc(C(NC(=O)C2(c3ccc4c(c3)CN(S(C)(=O)=O)C4)CC2)c2ccc(C)o2)c(C)c1 (centres unmarked) (as salt: HCl) [Cpd. 65, N-[(2,4-dimethylphenyl)(5-methylfuran-2-yl)methyl]-1-(2-methanesulfonyl-2,3-dihydro-1H-isoindol-5-yl)cyclopropane-1-carboxamide] | 67 °C
Cc1ccc(C(NC(=O)C2(c3ccc4[nH]cc(CCO)c4c3)CC2)c2ccc(C)o2)c(N2CCCCC2)c1 (centres unmarked) (as salt: HCl) [Cpd. 66, 1-[3-(2-hydroxyethyl)-1H-indol-5-yl]-N-{[4-methyl-2-(piperidin-1-yl)phenyl](5-methylfuran-2-yl)methyl}cyclopropane-1-carboxamide] | 95 °C
Cc1ccc(C(NC(=O)Cc2ccc3c(c2)C(=O)CC3)c2ccc(C)o2)c(N2CCCCC2)c1 (centres unmarked) (as salt: HCl) [Cpd. 67, N-{[4-methyl-2-(piperidin-1-yl)phenyl](5-methylfuran-2-yl)methyl}-2-(3-oxo-2,3-dihydro-1H-inden-5-yl)acetamide] | 71 °C

molecular target: T1, human RORγt (Homo sapiens, UniProt P51449); experiment: RORE Luciferase/RORγt transactivation assay; format: cell-based; settings: COS-7 cells transfected with human IL-17 promoter luciferase reporter and RORγt plasmid; 20 h with compound; read-out: IC50, RORγt activity inhibition
T1 construct: the full-length cDNA of human RORγt; expressed in transfected cells; host or cells: COS-7 (monkey kidney)
T1 sequence (P51449 1-497 isoform P51449-2): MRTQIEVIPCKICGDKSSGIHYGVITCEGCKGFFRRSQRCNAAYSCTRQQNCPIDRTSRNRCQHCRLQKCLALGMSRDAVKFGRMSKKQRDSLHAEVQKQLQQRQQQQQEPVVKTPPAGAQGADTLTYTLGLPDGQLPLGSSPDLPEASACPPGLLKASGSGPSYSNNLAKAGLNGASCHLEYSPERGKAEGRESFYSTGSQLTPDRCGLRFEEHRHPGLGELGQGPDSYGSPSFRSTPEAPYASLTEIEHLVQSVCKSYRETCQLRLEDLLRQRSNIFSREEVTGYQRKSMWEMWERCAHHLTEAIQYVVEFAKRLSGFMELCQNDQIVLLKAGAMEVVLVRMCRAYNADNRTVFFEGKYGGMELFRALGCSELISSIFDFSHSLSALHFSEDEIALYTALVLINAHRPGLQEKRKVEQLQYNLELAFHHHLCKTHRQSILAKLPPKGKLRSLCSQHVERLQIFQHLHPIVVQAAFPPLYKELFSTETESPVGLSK
Procedure, shortened: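 Transactivation read-out: luminescence (Steady-Glo, 30 min at room temperature) from COS-7 cells carrying a RORγt expression plasmid plus a 4.3 kb IL-17 promoter luciferase reporter. Compound exposure was in serum-free DMEM with 0.3% DMSO final. Reported values are IC50 (μM) and Emax (%).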

Compound | IC50
Cc1ccc(C(NC(=O)C2(c3ccc4c(c3)CCC4=NO)CC2)c2ccc(C)o2)c(C)c1 (centres unmarked) [Cpd. 165, N-[(2,4-dimethylphenyl)(5-methylfuran-2-yl)methyl]-1-[1-(hydroxyimino)-2,3-dihydro-1H-inden-5-yl]cyclopropane-1-carboxamide] | 10 to 100 nM
Cc1ccc(C(NC(=O)Cc2ccc3c(c2)CS(=O)(=O)N3CC2CCOCC2)c2ccc(C)o2)c(C)c1 (centres unmarked) [Cpd. 166, N-[(2,4-dimethylphenyl)(5-methylfuran-2-yl)methyl]-2-[1-(oxan-4-ylmethyl)-2,2-dioxo-1,3-dihydro-2,1-benzothiazol-5-yl]acetamide] | 10 to 100 nM
Cc1ccc(C(NC(=O)Cc2ccc3c(c2)CS(=O)(=O)N3CC2CCOCC2)c2ccc(C)o2)c(N2CCCCC2)c1 (centres unmarked) [Cpd. 167, N-{[4-methyl-2-(piperidin-1-yl)phenyl](5-methylfuran-2-yl)methyl}-2-[1-(oxan-4-ylmethyl)-2,2-dioxo-1,3-dihydro-2,1-benzothiazol-5-yl]acetamide] | 10 to 100 nM
Cc1ccc(C(NC(=O)C2(c3ccc4c(c3)OC(C)(C)OC4)CC2)c2ccc(C)o2)c(C)c1 (centres unmarked) [Cpd. 168, 1-(2,2-dimethyl-2,4-dihydro-1,3-benzodioxin-7-yl)-N-[(2,4-dimethylphenyl)(5-methylfuran-2-yl)methyl]cyclopropane-1-carboxamide] | 100 to 1000 nM
Cc1ccc(C(NC(=O)C2(c3ccc4c(c3)COC(C)(C)O4)CC2)c2ccc(C)o2)c(C)c1 (centres unmarked) [Cpd. 169, 1-(2,2-dimethyl-2,4-dihydro-1,3-benzodioxin-6-yl)-N-[(2,4-dimethylphenyl)(5-methylfuran-2-yl)methyl]cyclopropane-1-carboxamide] | 100 to 1000 nM
Cc1ccc(C(NC(=O)C2(c3ccc4[nH]cc(C(C)(C)CO)c4c3)CC2)c2ccc(C)o2)c(C)c1 (centres unmarked) [Cpd. 170, N-[(2,4-dimethylphenyl)(5-methylfuran-2-yl)methyl]-1-[3-(1-hydroxy-2-methylpropan-2-yl)-1H-indol-5-yl]cyclopropane-1-carboxamide] | 10 to 100 nM
Cc1ccc(C(NC(=O)C2(c3ccc4c(c3)OCS(=O)(=O)N4)CC2)c2ccc(C)o2)c(C(F)(F)F)c1 (centres unmarked) [Cpd. 171, 1-(2,2-dioxo-1,3-dihydro-4,2,1-benzoxathiazin-6-yl)-N-{[4-methyl-2-(trifluoromethyl)phenyl](5-methylfuran-2-yl)methyl}cyclopropane-1-carboxamide] | 10 to 100 nM
